Article PMC5153397 (EJNMMI Research, 2016)
Read-outs that look alike come from different tables or passages of the source.

Columns and labels:
[1] = cited from earlier work
Excerpt: Table 3 Absorbed kidney dose and effective dose of ^18F-labeled tracer and metal-labeled exendin PET and SPECT tracers | column: Kidney dose [mSv/MBq]; Effective dose [mSv/MBq]

[2] = pig, in vivo
Description: In addition, the stability of [^18F]exendin-4 was determined in pig plasma. Prior to blood sampling, animals were anesthetized (midazolam 1 mg/kg, xylazine 4 mg/kg intramuscular), connected to a respirator, and ventilated mechanically. Anesthesia was maintained with an i.v. infusion of propofol (10–20 mg/kg/h) and fentanyl (4–8 μg/kg/h). Vital signs were monitored throughout the study. Pigs were injected (radioactivity 1.2 ± 0.2 MBq/kg, mass 0.14 ± 0.04 μg/kg) and blood was sampled at 5, 15, 30, 60, and 180 min p.i. (N = 3 samples/time point). Plasma was treated and analyzed as described above.

[3] = parameters: species or system human
Description: Absorbed doses were calculated with OLINDA/EXM1.0 software, which includes radionuclide information and a selection of human body phantoms. Rat ex vivo biodistributions were estimated by integrating the area under the time–activity curves. The obtained residence times were converted into corresponding human values by multiplying with organ-specific factors that scaled organs to body weights, as follows: (W TB,rat/W Organ,rat) × (W Organ,human/W TB,human), where W TB,rat and W TB,human are the total body weights of rats and humans (70-kg male), respectively; and W Organ,rat and W Organ,human are the organ weights of rats and humans (70-kg male), respectively.

GLP-1R in the islets [4] = target: T1, GLP-1R in the islets (Rattus norvegicus, UniProt P32301); test: Ex vivo autoradiography of rat pancreas; assay type: in vivo
T1 construct: We dissected a rat pancreas and brain and froze them immediately after dissection; from tissue; host or cells: rat pancreas (islets): in vivo injection followed by ex vivo autoradiography, and frozen sections in vitro
T1 sequence (P32301 22-463): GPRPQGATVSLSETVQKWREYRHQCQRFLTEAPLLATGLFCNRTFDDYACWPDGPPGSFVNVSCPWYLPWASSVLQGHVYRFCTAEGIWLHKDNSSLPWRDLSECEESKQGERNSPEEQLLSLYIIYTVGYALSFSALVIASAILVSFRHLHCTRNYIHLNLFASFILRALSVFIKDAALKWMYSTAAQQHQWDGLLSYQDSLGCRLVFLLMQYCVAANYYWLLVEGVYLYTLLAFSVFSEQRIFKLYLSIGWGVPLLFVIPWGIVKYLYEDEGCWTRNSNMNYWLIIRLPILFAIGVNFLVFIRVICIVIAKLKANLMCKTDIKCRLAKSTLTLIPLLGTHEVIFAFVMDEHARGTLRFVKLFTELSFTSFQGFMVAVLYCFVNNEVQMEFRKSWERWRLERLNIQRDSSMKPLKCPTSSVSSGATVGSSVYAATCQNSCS
Description: Rats were anesthetized with isoflurane/O2 and injected (i.v.) with [^18F]exendin-4 (radioactivity 23 ± 5 MBq/kg, mass 2 ± 1 μg/kg). After injection, animals were allowed to recover from the anesthesia (except animal sacrificed 15 min p.i.). We further investigated tracer distribution in the brain by injecting one rat with a highly radioactive dose (50 MBq) of [^18F]exendin-4. Animals were sacrificed at 15, 30, 60, 120, 240, and 360 min (N = 2–11 rats/time point). Blood was extracted, and selected organs were dissected and weighed. Tissue radioactivity was measured with a γ-counter (Wizard, PerkinElmer, Turku, Finland). Tracer specificity was tested by co-injecting radiolabeled exendin-4 with an excess of cold exendin-3 (3 mg/kg) (Peptide Specialty Laboratories GmbH). Measurements were corrected for radionuclide decay, and results were reported as the percentage of the injected dose of radioactivity per gram of tissue (%ID/g).
The kidney, pancreas, and brain were sectioned and exposed to imaging plates (Fuji BAS-TR2025; Fuji Photo Film Co., Tokyo, Japan) for approximately 4 h. Imaging plates were scanned with a BAS-5000 scanner (Fuji Photo Film Co.) and the images were analyzed with AIDA 4.5 software (Raytest, Isotopenmessgeräte, Straubenhardt, Germany). Three pancreatic sections per rat were analyzed (N = 2–8 rats/time point). We determined the mean density values (photostimulated luminescence per square millimeter, PSL/mm^2) of ten prominently labeled islets and of the exocrine tissue and corrected for background noise. Finally, the islet-to-exocrine tissue ratio was calculated. […] The pancreatic sections used for autoradiography were then stained with insulin antibody (1’ mouse-anti-insulin, Nordic Biosite, Täby, Sweden, 2’ MAHC1 mouse probe, Biocare Medical, Concord, CA, USA), counterstained with hematoxylin, and imaged with a Slide Scanner (Pannoramic 250 F, 3DHistech, Budapest, Hungary).

[5] = target: T2, GLP1-R-rich areas of rat brain (Rattus norvegicus, UniProt P32301); details: in vivo
T2 construct: We dissected a rat pancreas and brain and froze them immediately after dissection; from tissue; host or cells: rat brain (GLP-1R-rich areas): in vivo injection with ex vivo read-out, and frozen sections in vitro
T2 sequence (P32301 22-463): T1 sequence (P32301 22-463)
Description: The in vivo kinetics of [^18F]exendin-4 were evaluated with the Inveon Multimodality PET/CT scanner (Siemens, Knoxville, TN, USA). Rats were anesthetized with isoflurane/O2 and injected intravenously (i.v.) with [^18F]exendin-4 (radioactivity 23 ± 5 MBq/kg, mass 2 ± 1 μg/kg). PET scans were acquired for up to 6 h (dynamic 0–60 min; static 210–240 min and 330–360 min; N = 2–5 rats/scan). The data were reconstructed with the ordered subset expectation maximization OSEM2D algorithm. Analyses were performed with Inveon Research Workplace 3 software (Siemens), after defining the volumes of interest (VOIs) on selected tissues.
Rats were anesthetized with isoflurane/O2 and injected (i.v.) with [^18F]exendin-4 (radioactivity 23 ± 5 MBq/kg, mass 2 ± 1 μg/kg). […] Tissue radioactivity was measured with a γ-counter (Wizard, PerkinElmer, Turku, Finland). […] Measurements were corrected for radionuclide decay, and results were reported as the percentage of the injected dose of radioactivity per gram of tissue (%ID/g).
The kidney, pancreas, and brain were sectioned and exposed to imaging plates (Fuji BAS-TR2025; Fuji Photo Film Co., Tokyo, Japan) for approximately 4 h. Imaging plates were scanned with a BAS-5000 scanner (Fuji Photo Film Co.) and the images were analyzed with AIDA 4.5 software (Raytest, Isotopenmessgeräte, Straubenhardt, Germany). […] Finally, the islet-to-exocrine tissue ratio was calculated. […]

[6] = target: T3, GLP-1R in pancreatic islets (Rattus norvegicus, UniProt P32301); test: In vitro binding in rat pancreas sections (autoradiography)
T3 construct: We dissected a rat pancreas and brain and froze them immediately after dissection; from tissue; host or cells: rat pancreas (islets): in vivo injection followed by ex vivo autoradiography, and frozen sections in vitro
T3 sequence (P32301 22-463): T1 sequence (P32301 22-463)
Description: (§1) We acquired a piece of human pancreas that was frozen immediately after surgery. We dissected a rat pancreas and brain and froze them immediately after dissection. Prior to incubations with ligand, the tissue sections of human and rat pancreas and GLP-1R-rich areas from rat brain [19] were incubated for 30 min with 1% BSA in PBS (pH 7.4). Then, sections were incubated for 60 min with various concentrations of [^18F]exendin-4 (range 2.5–20 nM) in vitro. To investigate tracer specificity, sections were incubated for 30 min with an excess of cold exendin-3 prior to adding [^18F]exendin-4. Sections were then washed and exposed to imaging plates, as described above (ex vivo autoradiography). Next, sections were stained and processed, as described above.

[7] = target: T4, GLP-1R-rich areas from rat brain (Rattus norvegicus, UniProt P32301); test: In vitro binding in rat brain sections (autoradiography); details: lateral septum, 1.25 nM (Fig. 7)
T4 construct: We dissected a rat pancreas and brain and froze them immediately after dissection; from tissue; host or cells: rat brain (GLP-1R-rich areas): in vivo injection with ex vivo read-out, and frozen sections in vitro
T4 sequence (P32301 22-463): T1 sequence (P32301 22-463)
Description: as §1, with “Then, sections were incubated for 60 min with various concentrations of [^18F]exendin-4 (range 2.5–20 nM) in vitro.” left out

GLP-1R in the islets [8] = target: T5, GLP-1R in the islets (Homo sapiens, UniProt P43220); test: In vitro binding in human pancreas sections (autoradiography); details: human pancreatic tissue sections
T5 construct: We acquired a piece of human pancreas that was frozen immediately after surgery; from tissue; host or cells: human pancreas, frozen surgical specimen, sections
T5 sequence (P43220 24-463): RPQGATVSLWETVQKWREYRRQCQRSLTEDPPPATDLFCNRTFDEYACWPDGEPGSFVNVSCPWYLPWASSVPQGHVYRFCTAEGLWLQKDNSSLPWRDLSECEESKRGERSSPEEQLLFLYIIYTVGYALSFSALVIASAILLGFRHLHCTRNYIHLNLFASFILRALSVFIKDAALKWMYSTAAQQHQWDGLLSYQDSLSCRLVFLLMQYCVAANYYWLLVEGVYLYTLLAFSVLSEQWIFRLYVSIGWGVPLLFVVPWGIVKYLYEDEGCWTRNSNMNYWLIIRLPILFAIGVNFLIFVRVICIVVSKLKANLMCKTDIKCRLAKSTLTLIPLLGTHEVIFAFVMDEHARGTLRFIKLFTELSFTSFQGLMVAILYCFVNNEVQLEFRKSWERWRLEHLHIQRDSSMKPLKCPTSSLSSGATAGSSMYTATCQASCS
Description: as §1

[9] = parameters: method as in PMID 12629557; details: rat; cited from earlier work

For “[^64Cu]NODAGA-exendin-4: metal-labeled exendin PET tracer, ref 3”, the Effective dose [1] is listed as 0.074 mSv/MBq and the Kidney dose [1] is listed as 1.48 mSv/MBq.

In the case of “[^111In]DTPA-exendin-4: metal-labeled exendin SPECT tracer”, the Effective dose [1] is listed as 0.155 mSv/MBq and the Kidney dose [1] is listed as 4.48 mSv/MBq.

For “^18F-labeled [Nle^14,Lys^40]exendin-4 [[^18F]exendin-4]”, the arrhythmia after administration [2] was “arrhythmia was observed”, the “blood pressure after administration” value [2] was “decreased” and the “body temperature after administration” value [2] was 41 °C. The “heart rate after administration” value [2] was 230–250 beats/min, the Effective dose [3] was 0.021 mSv/MBq and the “absorbed radiation dose, LLI (lower large intestine) wall” value [3] was 0.003 mSv/MBq. For the same substance, the “absorbed radiation dose, ULI (upper large intestine) wall” value [3] was 0.005 mSv/MBq, the “absorbed radiation dose, adrenal glands” value [3] was 0.016 mSv/MBq and the “absorbed radiation dose, brain” value [3] was 0.004 mSv/MBq. The “absorbed radiation dose, breasts” value [3] was 0.004 mSv/MBq, the “absorbed radiation dose, gallbladder wall” value [3] was 0.011 mSv/MBq and the “absorbed radiation dose, heart wall” value [3] was 0.010 mSv/MBq. For the same substance, the “absorbed radiation dose, liver” value [3] was 0.026 mSv/MBq, the “absorbed radiation dose, lungs” value [3] was 0.071 mSv/MBq and the “absorbed radiation dose, muscle” value [3] was 0.005 mSv/MBq. The “absorbed radiation dose, osteogenic cells” value [3] was 0.045 mSv/MBq, the “absorbed radiation dose, ovaries” value [3] was 0.003 mSv/MBq and the “absorbed radiation dose, pancreas” value [3] was 0.023 mSv/MBq. The “absorbed radiation dose, red bone marrow” value [3] was 0.009 mSv/MBq, the “absorbed radiation dose, skin” value [3] was 0.003 mSv/MBq and the “absorbed radiation dose, small intestine” value [3] was 0.005 mSv/MBq. The “absorbed radiation dose, spleen” value [3] was 0.022 mSv/MBq, the “absorbed radiation dose, stomach wall” value [3] was 0.007 mSv/MBq and the “absorbed radiation dose, testes” value [3] was 0.001 mSv/MBq. For the same substance, the “absorbed radiation dose, thymus” value [3] was 0.005 mSv/MBq, the “absorbed radiation dose, thyroid” value [3] was 0.003 mSv/MBq and the “absorbed radiation dose, total body” value [3] was 0.009 mSv/MBq. The “absorbed radiation dose, urinary bladder wall” value [3] was 0.002 mSv/MBq, the “absorbed radiation dose, uterus” value [3] was 0.003 mSv/MBq and the “islet labeling with blocking” value (GLP-1R in the islets [4]; co-injected with excess cold exendin-3, ex vivo autoradiography) was “not visible”. The islet-to-exocrine tissue ratio (GLP-1R in the islets [4]; ex vivo autoradiography, PSL/mm^2 of ten islets vs exocrine tissue, N = 2–8 rats/time point) was “increased over time”, the “tracer uptake in pancreatic islets” value (GLP-1R in the islets [4]; i.v., ex vivo autoradiography, 60 min p.i. (Fig. 5a), verified by insulin staining) was “tracer uptake was observed” and the “blood–brain barrier crossing” value [5] was “did not cross the blood–brain barrier”. The “islet labeling in vitro” value ([6]; 60 min incubation, 2.5 nM (Fig. 6), autoradiography) was “islet labeling was observed”, the “islet labeling in vitro with blocking” value ([6]; excess of cold exendin-3 added) was “not detected” and the “labeling of GLP-1R areas in brain in vitro” value [7] was “clearly labeled”. The “tracer binding in human pancreatic islets with blocking” value (GLP-1R in the islets [8]; excess cold exendin-3 added) was “no [^18F]exendin-4 binding was observed” and the “tracer binding in human pancreatic islets” value (GLP-1R in the islets [8]; various concentrations (2.5–20 nM), 60 min, autoradiography, verified by insulin immunostaining) was “clearly visible”.

For exendin-4, the “blood–brain barrier crossing” value [9] is listed as “crossed the blood–brain barrier”.
